Results on eleven compounds are retold here after patent US8354398B2, “Substituted isoxazole compounds” (Bristol-Myers Squibb Company, priority 2009, dated 2013).

Experiment [1] has as its target T1, S1P3 (Homo sapiens, UniProt Q99500). Briefly: Method B: Receptor [35S] GTPγS SPA Binding Assay, membranes from S1P3 transfected CHO cells. The experiment is classed as biochemical. Set-up: expressed in transfected cells; host or cells: CHO cells. The following applies: S1P3 transfected CHO cell membranes, NC = a satisfactory dose response curve was not obtained. The protocol: (§1) Membranes prepared from S1P1 or S1P3 transfected CHO cells (2 μg protein) were incubated in 96-well white plates (CORNING® 3693) with test compounds diluted in DMSO, in 50 μl of reaction mixture containing 7.5 μl WGA-PVT beads (20 mg/ml), and 5 μM GDP, 20 mM HEPES pH 7.4, 100 mM NaCl, 1 mM EDTA, 5 mM MgCl2, 10 μg/ml saponin, 0.1% BSA, and 1 μM leupeptin. The assay was initiated with the addition of 25 μl of 0.2 nM [^35S]-GTPγS (1250 Ci/mmol; NEN) in assay buffer. After 90 min incubation at room temperature, spin the plate at 1000 rpm for 5 min. The bound radionuclides were measured at TOPCOUNT®, expressed as % response relative to S1P (1 μM) activation. Data was analyzed using the four parameter logistic equation in Excel. The four parameters in the equation, Y=A+((B−A)/(1+((EC50/X)^D))), are described as following: A is the Y value (agonist activity) at the bottom plateau; B is the Y value at the top plateau; EC50 is the X value (agonist concentration) when the response is halfway between bottom and top; D is Hill coefficient. Curves were not generated for compounds having Ymax values were below 50%.
(§2) Compounds of the present invention and Comparative Compound A were tested in the Receptor [^35S] GTPγS Binding Assays (Method A) and Receptor [35S] In some instances, the value is an average of multiple experiments where N is the number of experiments conducted that provided satisfactory dose response curves. When more than one batch of an example was tested, the value presented is from a batch which allowed a comparison of GTPγS S1P1 and GTPγS S1P3 in which the most number of experiments were performed. Preferably, the same batch was examined in Method A and Method B. Data was not averaged across different batches of an example compound.
(In general: Binding of GTPγS marks nucleotide exchange on a G protein.)
Target sequence in this assay (Q99500 whole entry, species assumed): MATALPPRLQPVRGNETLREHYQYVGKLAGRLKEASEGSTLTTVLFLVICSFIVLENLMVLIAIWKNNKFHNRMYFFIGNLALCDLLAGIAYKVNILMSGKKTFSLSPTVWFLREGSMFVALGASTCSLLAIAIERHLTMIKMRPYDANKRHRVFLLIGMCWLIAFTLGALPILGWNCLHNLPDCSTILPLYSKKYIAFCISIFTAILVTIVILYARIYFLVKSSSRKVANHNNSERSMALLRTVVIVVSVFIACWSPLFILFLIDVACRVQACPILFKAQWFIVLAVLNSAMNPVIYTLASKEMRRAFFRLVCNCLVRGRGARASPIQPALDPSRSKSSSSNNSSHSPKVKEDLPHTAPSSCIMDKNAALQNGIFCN

The target of experiment [2] is T2, S1P1 (Homo sapiens, UniProt P21453). Briefly: Method B: Receptor [35S] GTPγS SPA Binding Assay, membranes from S1P1 transfected CHO cells. Conditions: for EC50: Method B SPA, S1P1 transfected CHO cell membranes, NC = a satisfactory dose response curve was not obtained; for GTPγS S1P3/S1P1 (Method B): ratio of GTPγS S1P3 EC50 to GTPγS S1P1 EC50, Method B. Set-up: expressed in transfected cells; host or cells: S1P1/CHO cells. The experiment is classed as biochemical. The protocol:
as §1, §2

The target of experiment [3] is T1, S1P3. Description: Method A: Receptor [35S] GTPγS Binding Assay, membranes from EDG3-Ga15-bla HEK293T cells. In kind it is biochemical. Set-up: expressed in transfected cells; host or cells: EDG3-Ga15-bla HEK293T cells. Conditions: EDG3-Ga15-bla HEK293T cell membranes. The protocol: (§3) Compounds were loaded in a 384 Falcon v-bottom plate (0.5 μl/well in a 3-fold dilution). Membranes prepared from S1P1/CHO cells or EDG3-Ga15-bla HEK293T cells were added to the compound plate (40 μl/well, final protein […]) with MULTIDROP®. [^35S]GTP (1250 Ci/mmol, Perkin Elmer) was diluted in assay buffer: 20 mM HEPES, pH7.5, 10 mM MgCl2, 150 mM NaCl, 1 mM EGTA, 1 mM DTT, 10 μM GDP, 0.1% fatty acid free BSA, and 10 mg/ml Saponin to 0.4 nM. 40 μl of the [^35S] GTP solution was added to the compound plate with a final concentration of 0.2 nM. The reaction was kept at room temperature for 45 min. At the end of incubation, all the mixtures in the compound plate were transferred to a 384 well FB filter plates via GPCR robot system. The filter plate was washed with water 4 times by using the modified manifold Embla plate washer and dried at 60° C. for 45 min. 30 μl of MicroScint 20 scintillation fluid was added to each well for counting at Packard TOPCOUNT®. EC50 is defined as the agonist concentration that corresponds to 50% of the Ymax (maximal response) obtained for each individual compound tested.
as §2
Target sequence in this assay (Q99500 whole entry): as the sequence (Q99500 whole entry, species assumed) above

In experiment [4] the target is T2, S1P1. Description: S1P1 Binding Assay (33P-S1P ligand competition, membranes from CHO cells). Further details: expressed in transfected cells; host or cells: CHO cells. Conditions: membranes of CHO cells expressing human S1P1; 0.03 nM 33P-S1P; 60 min room temperature. The protocol:
Membranes were prepared from CHO cells expressing human S1P1. Cells were dissociated in buffer containing 20 mM HEPES, pH 7.5, 50 mM NaCl, 2 mM EDTA and Protease Inhibitor cocktail (Roche), and disrupted on ice using the Polytron homogenizer. The homogenate was centrifuged at 20,000 rpm (48,000 g) and the supernatant was discarded. The membrane pellets were resuspended in buffer containing 50 mM HEPES, pH 7.5, 100 mM NaCl, 1 mM MgCl2, 2 mM EDTA and stored in aliquots at −80° C. after protein concentration determination.
Membranes (2 μg/well) and 0.03 nM final concentration of ^33P-S1P ligand (1 mCi/ml, American Radiolabeled Chemicals) were added to the compound plates. Binding was performed for 60 min at room temperature, terminated by collecting the membranes onto GF/B filter plates, and radioactivity was measured by TOPCOUNT®. The competition data of the test compounds over a range of concentrations was plotted as percentage inhibition of radioligand specific binding. The IC50 is defined as the concentration of competing ligand needed to reduce specific binding by 50%.
Compounds of the present invention and Comparative Compound A were tested in the S1P1 binding assay described hereinabove and the results rounded to two digits, shown in Table A were obtained. In some instances, the value is an average of multiple experiments where N is the number of experiments conducted that provided satisfactory dose response curves. When more than one batch of an example was tested, the value presented is from the batch which allowed a comparison of GTPγS S1P1 and GTPγS S1P3 in Method A (Data shown in Table B). Data was not averaged across different batches of an example compound.

Experiment [5] deals with T2, S1P1. Description: Method A: Receptor [35S] GTPγS Binding Assay, membranes from S1P1/CHO cells. In kind it is biochemical. Set-up: expressed in transfected cells; host or cells: S1P1/CHO cells. Conditions: for EC50: Method A, S1P1/CHO cell membranes; for GTPγS S1P3/S1P1 (Method A): ratio of GTPγS S1P3 EC50 to GTPγS S1P1 EC50, Method A. The protocol:
as §3, §2

Each structure is given as a SMILES string. Counter-ions that a name gives are not always drawn.

Broadly, the EC50 is the concentration at which the effect is half-maximal. By IC50 is commonly meant the point on the concentration scale where inhibition reaches its midpoint. Low readings indicate greater potency, high ones weaker potency.

T2 sequence (P21453 whole entry): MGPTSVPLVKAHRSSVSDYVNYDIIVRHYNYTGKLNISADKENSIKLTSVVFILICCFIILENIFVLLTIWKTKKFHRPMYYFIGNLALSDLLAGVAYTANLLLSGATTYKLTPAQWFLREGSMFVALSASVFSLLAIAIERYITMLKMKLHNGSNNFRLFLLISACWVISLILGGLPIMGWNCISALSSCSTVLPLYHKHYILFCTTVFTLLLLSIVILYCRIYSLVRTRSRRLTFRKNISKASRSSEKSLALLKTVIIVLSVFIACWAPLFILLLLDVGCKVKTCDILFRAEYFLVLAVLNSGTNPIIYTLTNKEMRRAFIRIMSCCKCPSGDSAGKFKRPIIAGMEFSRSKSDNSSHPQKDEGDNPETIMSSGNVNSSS

`O=C(O)C1CN(Cc2ccc(-c3noc(-c4onc(-c5ccccc5)c4C(F)F)n3)cc2)C1` [Example 12, 1-(4-(5-(4-(Difluoromethyl)-3-phenylisoxazol-5-yl)-1,2,4-oxadiazol-3-yl)benzyl)azetidine-3-carboxylic acid, 2,2,2-trifluoroacetic acid salt]: the EC50 at S1P3 [1] was 1600 nM; on S1P1 [2], 0.15 nM; on S1P3 [3] it was 3600 nM. In addition, the “GTPγS S1P3/S1P1 (Method B)” value on S1P1 [2] was 11,000. For the same compound, the IC50 on S1P1 [4] is 0.078 nM.
Consider `CCCc1c(-c2ccccc2)noc1-c1nc(-c2ccc(CN3CC(C(=O)O)C3)cc2)no1` [Example 11, 1-(4-(5-(3-Phenyl-4-propylisoxazol-5-yl)-1,2,4-oxadiazol-3-yl)benzyl)azetidine-3-carboxylic acid, 2,2,2-trifluoroacetic acid salt], for which the EC50 at S1P3 [1] amounted to 50 nM; at S1P1 [2], 0.017 nM; at S1P1 [5], 0.47 nM. The “GTPγS S1P3/S1P1 (Method B)” value on S1P1 [2] is reported as 2,900. Also, on S1P1 [4], the IC50 came to 0.13 nM.
On to `O=C(O)C1CN(Cc2ccc(-c3noc(-c4noc(-c5ccccc5)c4-c4ccccc4)n3)cc2)C1` [Example 17, 1-(4-(5-(4,5-diphenylisoxazol-3-yl)-1,2,4-oxadiazol-3-yl)benzyl)azetidine-3-carboxylic acid, 2,2,2-trifluoroacetic acid salt], for which the EC50 came out at 13.5 nM on S1P3 [1], 0.12 nM at S1P1 [2], 0.73 nM at S1P1 [5] and 20 nM at S1P3 [3]. The “GTPγS S1P3/S1P1 (Method B)” value on S1P1 [2] stood at 112. In addition, the “GTPγS S1P3/S1P1 (Method A)” value at S1P1 [5] turned out to be 27. The compound also registered an IC50 on S1P1 [4] of 0.063 nM.
As to `CC(C)(C)c1c(-c2nc(-c3ccc(CN4CC(C(=O)O)C4)cc3)no2)noc1-c1ccccc1` [Example 7, 1-(4-(5-(4-tert-Butyl-5-phenylisoxazol-3-yl)-1,2,4-oxadiazol-3-yl)benzyl)-azetidine-3-carboxylic acid, 2-2-2-trifluoroacetic acid salt], the EC50 was 8100 nM on S1P3 [1], 1.5 nM at S1P1 [2], 6.6 nM on S1P1 [5] and 3700 nM on S1P3 [3]. Further, on S1P1 [2], the “GTPγS S1P3/S1P1 (Method B)” value is 5,400. Besides, the “GTPγS S1P3/S1P1 (Method A)” value on S1P1 [5] is reported as 560. Moreover, the IC50 at S1P1 [4] worked out at 0.58 nM.
With `CC(C)Cc1c(-c2nc(-c3ccc(CN4CC(C(=O)O)C4)cc3)no2)noc1-c1ccccc1` [Example 4, 1-(4-(5-(4-Isobutyl-5-phenylisoxazol-3-yl)-1,2,4-oxadiazol-3-yl)benzyl)-azetidine-3-carboxylic acid], the EC50 at S1P1 [2] came out at 0.58 nM; on S1P1 [5] it was 0.7 nM; on S1P3 [3], 470 nM. In addition, the “GTPγS S1P3/S1P1 (Method A)” value at S1P1 [5] was 670. The compound also came in with an IC50 at S1P1 [4] of 0.17 nM.
With `CCC(F)(F)c1c(-c2nc(-c3ccc(CN4CC(C(=O)O)C4)cc3)no2)noc1-c1ccccc1` [Example 10, 1-(4-(5-(4-(1,1-Difluoropropyl)-5-phenylisoxazol-3-yl)-1,2,4-oxadiazol-3-yl)benzyl)azetidine-3-carboxylic acid, trifluoroacetic acid salt], the EC50 on S1P1 [2] worked out at 0.055 nM; on S1P1 [5] it was 0.84 nM; on S1P3 [3], 190 nM. For the same compound, the “GTPγS S1P3/S1P1 (Method A)” value at S1P1 [5] was found to be 230. Also, the IC50 at S1P1 [4] is 0.055 nM.
As for `O=C(O)C1CN(Cc2ccc(-c3noc(-c4cc(-c5ccccc5)c(C(F)(F)F)s4)n3)cc2)C1` [Comp. A, 1-(4-(5-(4-Phenyl-5-(trifluoromethyl)thiophen-2-yl)-1,2,4-oxadiazol-3-yl)benzyl)azetidine-3-carboxylic acid, reference compound], the EC50 turned out to be 20 nM on S1P3 [1], 0.25 nM at S1P1 [2], 84 nM on S1P1 [5] and 97 nM at S1P3 [3]. Besides, the “GTPγS S1P3/S1P1 (Method B)” value at S1P1 [2] is recorded as 78. Further, at S1P1 [5], the “GTPγS S1P3/S1P1 (Method A)” value is on record as 1.2. Further, the IC50 at S1P1 [4] amounted to 2.5 nM.
As to `O=C(O)C1CN(Cc2ccc(-c3noc(-c4noc(-c5ccccc5)c4C4CC4)n3)cc2)C1` [Example 6, 1-(4-(5-(4-Cyclopropyl-5-phenylisoxazol-3-yl)-1,2,4-oxadiazol-3-yl)benzyl)-azetidine-3-carboxylic acid, 2,2,2-trifluoroacetic acid salt], the EC50 was 0.22 nM on S1P1 [2], 5.6 nM on S1P1 [5] and 420 nM at S1P3 [3]. Further, the “GTPγS S1P3/S1P1 (Method A)” value on S1P1 [5] amounted to 75. Besides, the IC50 on S1P1 [4] turned out to be 0.043 nM.
`CC(F)(F)c1c(-c2nc(-c3ccc(CN4CC(C(=O)O)C4)cc3)no2)noc1-c1ccccc1` [Example 9, 1-(4-(5-(4-(1,1-Difluoroethyl)-5-phenylisoxazol-3-yl)-1,2,4-oxadiazol-3-yl)benzyl)azetidine-3-carboxylic acid, 2,2,2-trifluoroacetic acid salt]: the EC50 is 910 nM at S1P3 [1], 0.14 nM at S1P1 [2], 3.1 nM on S1P1 [5] and 2500 nM on S1P3 [3]. For the same compound, the “GTPγS S1P3/S1P1 (Method B)” value at S1P1 [2] was 6,500. For the same compound, the “GTPγS S1P3/S1P1 (Method A)” value on S1P1 [5] is recorded as 810. The IC50 on S1P1 [4] stood at 0.14 nM.
Consider `CCCc1onc(-c2nc(-c3ccc(CN4CC(C(=O)O)C4)cc3)no2)c1CC(C)C` [Example 19, 1-(4-(5-(4-Isobutyl-5-propylisoxazol-3-yl)-1,2,4-oxadiazol-3-yl)benzyl)azetidine-3-carboxylic acid, TFA], for which the EC50 on S1P1 [2] is 0.72 nM; on S1P1 [5], 3 nM; on S1P3 [3], 810 nM. For the same compound, on S1P1 [5], the “GTPγS S1P3/S1P1 (Method A)” value came out at 270. Besides, on S1P1 [4], the IC50 amounted to 0.3 nM.
Consider `CCCc1c(-c2nc(-c3ccc(CN4CC(C(=O)O)C4)cc3)no2)noc1CC(C)C` [Example 18, 1-(4-(5-(5-Isobutyl-4-propylisoxazol-3-yl)-1,2,4-oxadiazol-3-yl)benzyl)azetidine-3-carboxylic acid, TFA], for which the EC50 at S1P3 [1] turned out to be 21 nM; at S1P1 [2], 0.015 nM; at S1P1 [5], 1 nM. For the same compound, at S1P1 [2], the “GTPγS S1P3/S1P1 (Method B)” value is 1,400. The compound also gave an IC50 on S1P1 [4] of 0.14 nM.
